From the supplement of paper PMC10307832

How the values were obtained:
Test in all cases: relative viability (nuclei count vs DMSO), 5 days (fraction); higher = more cells survive
NCI-H1975 = system: NCI-H1975
Summary of the method: (§1)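 One day after seeding in 1536-well plates, lung cancer cell lines were dosed by pin tool. Dosing was either single-drug or a fixed anchor-drug dose plus five library-drug doses (not always all listed) in √10 steps. After 5 days, nuclei were stained in one fix-and-stain step and counted on 4× images, and relative viability is the nuclei count of treated wells over that of vehicle wells, given as the median of duplicate plates.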

NCI-H2170 = system: NCI-H2170
Summary of the method: as §1

HCC-827 = system: HCC-827
Summary of the method: as §1

NCI-H520 = system: NCI-H520
Summary of the method: as §1

SW 900 = system: SW 900
Summary of the method: as §1

LXF-289 = system: LXF-289
Summary of the method: as §1

NCI-H1915 = system: NCI-H1915
Summary of the method: as §1

NCI-H1944 = system: NCI-H1944
Summary of the method: as §1

SW 1573 = system: SW 1573
Summary of the method: as §1

LCLC-103H = system: LCLC-103H
Summary of the method: as §1

SK-MES-1 = system: SK-MES-1
Summary of the method: as §1

NCI-H2023 = system: NCI-H2023
Summary of the method: as §1

NCI-H2087 = system: NCI-H2087
Summary of the method: as §1

COR-L 105 = system: COR-L 105
Summary of the method: as §1

LOU-NH91 = system: LOU-NH91
Summary of the method: as §1

H3255 = system: H3255
Summary of the method: as §1

NCI-H358 = system: NCI-H358
Summary of the method: as §1

NCI-H1793 = system: NCI-H1793
Summary of the method: as §1

A-427 = system: A-427
Summary of the method: as §1

NCI-H1993 = system: NCI-H1993
Summary of the method: as §1

## CN1CCN(CCOc2cc(OC3CCOCC3)c3c(Nc4c(Cl)ccc5c4OCO5)ncnc3c2)CC1 [Saracatinib] + COc1cc2c(Oc3ccc(NC(=O)C4(C(=O)Nc5ccc(F)cc5)CC4)cc3F)ccnc2cc1OCCCN1CCOCC1 [Foretinib] (partner 0.25 µM)
NCI-H1975; first compound 0.02 µM
  relative viability: 0.956
NCI-H1975; first compound 0.2 µM
  relative viability: 0.85
NCI-H1975; first compound 0.6325 µM
  relative viability: 0.96
NCI-H1975; first compound 2 µM
  relative viability: 0.631
NCI-H2170; first compound 0.02 µM
  relative viability: 0.989
NCI-H2170; first compound 0.2 µM
  relative viability: 0.705
NCI-H2170; first compound 0.6325 µM
  relative viability: 1.03
NCI-H2170; first compound 2 µM
  relative viability: 0.872
HCC-827; first compound 0.02 µM
  relative viability: 1.08
HCC-827; first compound 0.2 µM
  relative viability: 0.452
HCC-827; first compound 0.6325 µM
  relative viability: 0.193
HCC-827; first compound 2 µM
  relative viability: 0.17
NCI-H520; first compound 0.02 µM
  relative viability: 0.761
NCI-H520; first compound 0.6325 µM
  relative viability: 0.611
NCI-H520; first compound 2 µM
  relative viability: 0.523
SW 900; first compound 0.02 µM
  relative viability: 0.78
SW 900; first compound 0.2 µM
  relative viability: 0.737
SW 900; first compound 0.6325 µM
  relative viability: 0.919
SW 900; first compound 2 µM
  relative viability: 0.776
LXF-289; first compound 0.02 µM
  relative viability: 0.922
LXF-289; first compound 0.2 µM
  relative viability: 0.748
LXF-289; first compound 0.6325 µM
  relative viability: 1.04
LXF-289; first compound 2 µM
  relative viability: 0.891
NCI-H1915; first compound 0.02 µM
  relative viability: 1.05
NCI-H1915; first compound 0.2 µM
  relative viability: 1.05
NCI-H1915; first compound 0.6325 µM
  relative viability: 1.12
NCI-H1915; first compound 2 µM
  relative viability: 0.96
NCI-H1944; first compound 0.02 µM
  relative viability: 0.868
NCI-H1944; first compound 0.6325 µM
  relative viability: 0.935
NCI-H1944; first compound 2 µM
  relative viability: 0.549
SW 1573; first compound 0.02 µM
  relative viability: 0.895
SW 1573; first compound 0.2 µM
  relative viability: 0.711
SW 1573; first compound 0.6325 µM
  relative viability: 1.14
SW 1573; first compound 2 µM
  relative viability: 0.792
LCLC-103H; first compound 0.02 µM
  relative viability: 0.698
LCLC-103H; first compound 0.2 µM
  relative viability: 0.669
LCLC-103H; first compound 0.6325 µM
  relative viability: 0.742
LCLC-103H; first compound 2 µM
  relative viability: 0.572
SK-MES-1; first compound 0.02 µM
  relative viability: 0.94
SK-MES-1; first compound 0.2 µM
  relative viability: 0.772
SK-MES-1; first compound 0.6325 µM
  relative viability: 0.798
SK-MES-1; first compound 2 µM
  relative viability: 0.533
NCI-H2023; first compound 0.02 µM
  relative viability: 0.953
NCI-H2023; first compound 0.2 µM
  relative viability: 0.873
NCI-H2023; first compound 0.6325 µM
  relative viability: 0.656
NCI-H2023; first compound 2 µM
  relative viability: 0.531
NCI-H2087; first compound 0.02 µM
  relative viability: 1.07
NCI-H2087; first compound 0.2 µM
  relative viability: 0.874
NCI-H2087; first compound 0.6325 µM
  relative viability: 1.1
NCI-H2087; first compound 2 µM
  relative viability: 1.07
COR-L 105; first compound 0.02 µM
  relative viability: 0.973
COR-L 105; first compound 0.2 µM
  relative viability: 1.04
COR-L 105; first compound 0.6325 µM
  relative viability: 1.09
COR-L 105; first compound 2 µM
  relative viability: 0.816
LOU-NH91; first compound 0.02 µM
  relative viability: 0.867
LOU-NH91; first compound 0.2 µM
  relative viability: 0.661
LOU-NH91; first compound 0.6325 µM
  relative viability: 0.609
LOU-NH91; first compound 2 µM
  relative viability: 0.488
H3255; first compound 0.02 µM
  relative viability: 0.97
H3255; first compound 0.2 µM
  relative viability: 0.749
H3255; first compound 0.6325 µM
  relative viability: 0.987
H3255; first compound 2 µM
  relative viability: 0.3
NCI-H358; first compound 0.02 µM
  relative viability: 0.761
NCI-H358; first compound 0.2 µM
  relative viability: 0.534
NCI-H358; first compound 0.6325 µM
  relative viability: 0.421
NCI-H358; first compound 2 µM
  relative viability: 0.213
NCI-H1793; first compound 0.02 µM
  relative viability: 0.685
NCI-H1793; first compound 0.6325 µM
  relative viability: 0.777
NCI-H1793; first compound 2 µM
  relative viability: 0.454
A-427; first compound 0.02 µM
  relative viability: 1.09
A-427; first compound 0.2 µM
  relative viability: 1.09
A-427; first compound 0.6325 µM
  relative viability: 1.07
A-427; first compound 2 µM
  relative viability: 0.99
NCI-H1993; first compound 0.02 µM
  relative viability: 0.692
NCI-H1993; first compound 0.2 µM
  relative viability: 0.625
NCI-H1993; first compound 0.6325 µM
  relative viability: 0.696
NCI-H1993; first compound 2 µM
  relative viability: 0.552
